Assay results reported in US12458643B2, “Antidepressant/anxiolytic drug in which PAC1 receptor antagonist is used” (KAGOSHIMA UNIVERSITY, priority 2020, dated 2025).

How the values were obtained:
normal mice = test: Open field test in normal mice; format: in vivo, mouse; details: normal male C57BL/6J mice, 30 mg/kg i.p., 60 min after administration, 10 min test
Protocol: The effects of PA-8 and PA-81004 on normal mice were evaluated by an open field test (test to measure spontaneous locomotion in a novel environment by exploiting the properties of mice to do exploratory behavior in such a novel environment, and using a 40 cm×40 cm box of 30 cm in height; spontaneous motor activity is measured from the total distance traveled; in this test, anxiety-like behavior is evaluated by exploiting the properties of mice to prefer to stay near walls and avoid light environments, and measuring a time spent in a center zone (20 cm×20 cm) or the number of entries thereto). Male C57BL/6J mice (8 to 12 weeks old) were acclimatized to a laboratory (illuminance: 40 lx) for 60 minutes. Then, a vehicle (10% DMSO solution; dissolved in saline; n=11), PA-8 (30 mg/kg; n=9) or PA-81004 (30 mg/kg; n=12) was intraperitoneally administered thereto (0.1 mL/10 g). After a lapse of 60 minutes after administration, the test was conducted for 10 minutes. The results are shown in FIG. 1 (A: total distance traveled, B: the number of center zone entries, C: time spent in the center zone). The effects of PA-9 and PA-915 on normal mice were evaluated by the open field test. Male C57BL/6J mice (8 to 12 weeks old) were acclimatized to a laboratory (illuminance: 40 lx) for 60 minutes. Then, a vehicle (10% DMSO solution; dissolved in saline; n=10), PA-9 (30 mg/kg; n=11) or PA-915 (30 mg/kg; n=10) was intraperitoneally administered thereto (0.1 mL/10 g). After a lapse of 60 minutes after administration, the test was conducted for 10 minutes. The results are shown in FIG. 5 (A: total distance traveled, B: the number of center zone entries, C: time spent in the center zone).

[1] = system: chronic social defeat stress mice; test: Chronic social defeat stress, sucrose preference test; format: in vivo, mouse; details: for sustained effect on reduced sucrose preference: 8, 15, 29, 57 days after single i.p. dose (PA-915 30 mg/kg, ketamine 20 mg/kg), fluoxetine: after withdrawal of 14-day administration
Protocol: In a sucrose preference test, mice are exposed to a sucrose solution and regular water contained in bottles at the same time. Normal mice prefer to drink the sweet sucrose solution, whereas depressed mice drink the sucrose solution at a decreased ratio.
(§1) Chronic social defeat stress was applied at 10 min/day for 10 days (Days 1 to 10) to male C57BL/6N mice (8 to 12 weeks old) each reared in isolation for 10 days or longer. On Day 11, SPAT was conducted, and susceptible mice were selected. A vehicle (10% DMSO solution; dissolved in saline; n=11) or PA-8 (30 mg/kg; n=9) was intraperitoneally administered once daily (0.1 mL/10 g) for 7 consecutive days from day 12. The sucrose preference test was conducted (a sucrose preference ratio was studied for 17 hours) 30 minutes after the final administration on the 7th day (Day 18). Mice reared for 10 days in a home cage without chronic social defeat stress load were used as a control (n=10). The data was indicated by mean±standard error. *P<0.05 (One-way ANOVA followed by Tukey-Kramer test).
as §1, with “PA-9” for “PA-8”, “n=9 or 8)” for “n=9)”, “after administration on” for “after”, “first day (Day 12) and” for “final administration”, “18). […]” for “18).”
Chronic social defeat stress was applied at 10 min/day for 10 days (Days 1 to 10) to male C57BL/6N mice (8 to 12 weeks old) each reared in isolation for 10 days or longer. On Day 11, SPAT was conducted, and susceptible mice were selected. On the next day (Day 12), a vehicle (10% DMSO solution; dissolved in saline; n=11) or PA-915 (30 mg/kg; n=10) was intraperitoneally administered (0.1 mL/10 g) to the mice. The sucrose preference test was conducted (a sucrose preference ratio was studied for 17 hours) from 30 minutes after administration. Mice reared for 10 days in a home cage without chronic social defeat stress load were used as a control (n=15). The data was indicated by mean±standard error. *P<0.05 (One-way ANOVA followed by Tukey-Kramer test).
Chronic social defeat stress was applied at 10 min/day for 10 days (Days 1 to 10) to male C57BL/6N mice (8 to 12 weeks old) each reared in isolation for 10 days or longer. On Day 11, the social preference or avoidance test (SPAT) was conducted, and susceptible mice were selected. On the next day (Day 12), a vehicle (V: 10% DMSO solution; dissolved in saline; n=17), PA-915 (P: 30 mg/kg; n=15), ketamine (K: 20 mg/kg; n=15) or fluoxetine (F: 20 mg/kg; n=16, n=15 only on Day 69) was intraperitoneally administered (0.1 mL/10 g) to the mice. The sucrose preference test was conducted 24 hours later (Day 13), 8 days later (Day 20), 15 days later (Day 27), 29 days later (Day 41), and 57 days later (Day 69) (a sucrose preference ratio was studied on each day from 5:00 p.m. of the previous day to 10:00 a.m. of the day). However, for the fluoxetine administration group, consecutive administration (F: 20 mg/kg, intraperitoneal administration (0.1 mL/10 g)) was performed for 14 days from Day 12 to Day 26. Mice reared for 10 days in a home cage without chronic social defeat stress load were used as a control (n=22). The data was indicated by mean±standard error. **P<0.01; *P<0.05 (One-way ANOVA followed by Tukey-Kramer test). […]

[2] = chronic social defeat stress, 30 mg/kg i.p. once daily for 7 days, test 30 min after final administration (Day 18)
[3] = Example 19, single i.p. dose (PA-915 30 mg/kg, ketamine 20 mg/kg, fluoxetine 20 mg/kg), 24 hours later (Day 13)

| SMILES | pharmacological action in open field test (total distance traveled, center zone entries, time in center zone) (normal mice) | effect on reduced sucrose preference [1, 2] | effect on reduced sucrose preference ([1]; chronic social defeat stress, 30 mg/kg i.p. single dose (Day 12), test from 30 min after administration, 17 hours) | sustained effect on reduced sucrose preference ([1]; Example 19) | effect on reduced sucrose preference [1, 3] | effect on reduced sucrose preference ([1]; Example 19, fluoxetine 20 mg/kg i.p. 14-day consecutive administration (Day 12 to Day 26)) |
| --- | --- | --- | --- | --- | --- | --- |
| C=CCOc1ccc(C2CC(=O)Nc3nc(N)[nH]c(=O)c32)cc1OC (centres unmarked) [PA-8] | no pharmacological action | improving effect |  |  |  |  |
| O=C(NCCc1c[nH]cn1)C1CC(=O)N(c2n[nH]c3ccccc23)C1 (centres unmarked) [PA-9] | no pharmacological action | its effect was also sustained after repeated administration for 7 days | improved sucrose preference even by single-dose administration |  |  |  |
| Nc1nc2c(c(=O)[nH]1)C(c1cccc(OC(F)(F)F)c1)CC(=O)N2 (centres unmarked) [PA-81004, 2-Amino-5-(3-trifluoromethoxyphenyl)-5,8-dihydro-3H,6H-pyrido[2,3-d]pyrimidine-4,7-dione] | no pharmacological action |  |  |  |  |  |
| CNC1(c2ccccc2Cl)CCCCC1=O (centres unmarked) [ketamine] |  |  |  | maintained its effectiveness 8, 15, 29, and 57 days later | improved reduced sucrose preference in a fast-acting manner |  |
| CNCCC(Oc1ccc(C(F)(F)F)cc1)c1ccccc1 (centres unmarked) [fluoxetine] |  |  |  | its effectiveness was not maintained after drug withdrawal | did not improve sucrose preference | improved reduced sucrose preference |
